Laboratory results as given in patent US10941157B2, “Pesticidal compositions and uses thereof” (Gilead Apollo, LLC, priority 2015, dated 2021).
Converted amounts (≈) assume the structure as drawn. Read-outs that look alike come from different tables or passages of the source.

Key:
Phakopsora pachyrhizi = assay: Foliar protection test for Asian soybean rust control; format: in vivo; conditions: foliar application to soybean (Glycine max AG4832), percent disease area evaluated 14 days later
[1] = test system: Fusarium virguliforme (Fv); assay: In vitro pathogen growth inhibition assay, Fv; format: cell-based
Method in brief: (§1)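 Value reported is the compound concentration reaching ≥90% growth inhibition, from OD readings at 24 and 48 h after blank subtraction, confirmed visually. Inoculum was spores diluted in 17% V8 medium, except Rs, using 1.5 mm mycelial plugs in ¼ PDB; actual compound concentration corrected via OD600.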

Botrtyis cinerea (Bc) = assay: In vitro pathogen growth inhibition assay, Bc; format: cell-based; conditions: 48 h
Method in brief: as §1

Fusarium graminearum = format: in vivo; conditions: corn from treated seeds, 0.025 mg/seed, F. graminearum inoculated
Septoria tritici (St) = assay: In vitro pathogen growth inhibition assay, St; format: cell-based; conditions: Zymoseptoria tritici, 48 h
Method in brief: as §1

Pythium ultimum = assay: Seed protectant for soybean seedling disease, P. ultimum; format: in vivo; conditions: soybean from treated seeds, 0.025 mg/seed, P. ultimum inoculated; for Plant Weight: fresh weight at 14 days; for Improvement in plant weight: percentage of non-inoculated non-treated controls
Method in brief: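 Treated soybean seeds (cv. AG4832) sown over R. solani (sorghum) or P. ultimum (millet) inoculum, grown at 20–24 °C, 14 h light, 65% humidity. Emergence scored at 7 and 14 days; shoot fresh weight at 14 days compared against inoculated and non-inoculated untreated seeds.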

Puccinia triticina = assay: Foliar protection test for wheat leaf rust control; format: in vivo; conditions: foliar application to wheat (Triticum aestivum cv. Winterhawk), evaluated 10 days later
[2] = test system: Collectotrichum graminicola (Cg); assay: In vitro pathogen growth inhibition assay, Cg; format: cell-based; conditions: 48 h
Method in brief: as §1

[3] = test system: Fusarium moniliforme (Fm); assay: In vitro pathogen growth inhibition assay, Fm; format: cell-based; conditions: Fusarium verticillioides
Method in brief: as §1

[4] = test system: Mycosphaerella graminicola (synthetic Septoria tritici); assay: Foliar protection test for wheat septoria leaf blotch control; format: in vivo; conditions: foliar spray on Triticum aestivum cv. WinterHawk, inoculated 1 hour after treatment, evaluated 16 days later
[5] = test system: Blumeria graminis f. sp. hordei; assay: Foliar protection test for barley powdery mildew control; format: in vivo; conditions: foliar spray on Hordeum vulgare cv. Perry, inoculated 24 hours after treatment, evaluated 7 days later
Method in brief: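 Protective foliar test: compound atomized onto both leaf surfaces of 6-day-old Hordeum vulgare cv. Perry, followed after 24 h by spore-cloud inoculation from colonized untreated plants. Disease rated on leaves 7 days on, plants held at 20 to 22° C and 70% RH.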

[6] = ≥90% growth inhibition, 48 hours, vs 2% DMSO control, read-out: Compound Concentration (ppm) sufficient for ≥90% inhibition of Fv
[7] = ≥90% growth inhibition, 48 hours, vs 2% DMSO control, read-out: Compound Concentration (ppm) sufficient for ≥90% inhibition of Bc
[8] = ≥90% growth inhibition, 48 hours, vs 2% DMSO control, read-out: Compound Concentration (ppm) sufficient for ≥90% inhibition of St
[9] = ≥90% growth inhibition, 48 hours, vs 2% DMSO control, read-out: Compound Concentration (ppm) sufficient for ≥90% inhibition of Cg
[10] = ≥90% growth inhibition, 48 hours, vs 2% DMSO control, read-out: Compound Concentration (ppm) sufficient for ≥90% inhibition of Fm

Structure (SMILES) | Asian Soybean Rust Control at a compound concentration of 25 ppm or lower (Phakopsora pachyrhizi) | IC90 ([1]; ≥90% inhibition, 48 hours vs 2% DMSO control, read-out: Compound Concentration (ppm) sufficient for ≥90% inhibition of growth, Fv) | IC90 (Botrtyis cinerea (Bc); ≥90% inhibition, 48 hours vs 2% DMSO control, read-out: Compound Concentration (ppm) sufficient for ≥90% inhibition of growth, Bc) | Plant Height (Fusarium graminearum; Table 12) | Plant Height (Fusarium graminearum; Table 13) | IC90 (Septoria tritici (St); ≥90% inhibition, 48 hours vs 2% DMSO control, read-out: Compound Concentration (ppm) sufficient for ≥90% inhibition of growth, St) | Plant Weight (Pythium ultimum) | Improvement in plant weight (Pythium ultimum) | Wheat Leaf Rust Control at a compound concentration of 10 ppm or lower (Puccinia triticina) | IC90 ([2]; ≥90% inhibition, 48 hours vs 2% DMSO control, read-out: Compound Concentration (ppm) sufficient for ≥90% inhibition of growth, Cg) | IC90 ([3]; ≥90% inhibition, 48 hours vs 2% DMSO control, read-out: Compound Concentration (ppm) sufficient for ≥90% inhibition of growth, Fm) | Septoria Leaf Blotch Control at a compound concentration of 25 ppm or lower [4] | Barley Powdery Mildew Control at a compound concentration of 10 ppm or lower [5] | IC90 [1, 6] | IC90 (Botrtyis cinerea (Bc); [7]) | IC90 (Septoria tritici (St); [8]) | IC90 [2, 9] | IC90 [3, 10]
COc1ccc(F)cc1[C@H](Cn1c(=O)n(C(C)(C)C(=O)NC(C)C)c(=O)c2c(C)c(-n3nccn3)sc21)OCCC#N [Compound I-095, (R)-2-(1-(2-(2-cyanoethoxy)-2-(5-fluoro-2-methoxyphenyl)ethyl)-5-methyl-2,4-dioxo-6-(2H-1,2,3-triazol-2-yl)-1,4-dihydrothieno[2,3-d]pyrimidin-3 (2H)-yl)-N-isopropyl-2-methylpropanamide] | AA (≥85% control of Asian soybean rust) | 0.08 µg/mL (≈ 0.134 µM) | 0.4 µg/mL (≈ 0.669 µM) | 39.41 cm | 43.97 cm | > 50 µg/mL | 4.65 g | 74% | AA (≥85% control of wheat leaf rust) | 0.08 µg/mL (≈ 0.134 µM) | 0.08 µg/mL (≈ 0.134 µM) | AA (≥85% control of wheat septoria leaf blotch) | AA (≥85% control of barley powdery mildew) | – | – | – | – | –
COc1ccc(F)cc1[C@H](Cn1c(=O)n(C(C)(C)C(=O)NC(C)C)c(=O)c2c(C)c(-n3cccn3)sc21)OCCC#N [Compound I-191, (R)-2-(1-(2-(2-cyanoethoxy)-2-(5-fluoro-2-methoxyphenyl)ethyl)-5-methyl-2,4-dioxo-6-(1H-pyrazol-1-yl)-1,4-dihydrothieno[2,3-d]pyrimidin-3 (2H)-yl)-N-isopropyl-2-methylpropanamide] | A (from 70% to 84% control of Asian soybean rust) | – | – | 35.50 cm | – | – | 5.00 g | 80% | AA (≥85% control of wheat leaf rust) | – | – | AA (≥85% control of wheat septoria leaf blotch) | AA (≥85% control of barley powdery mildew) | 0.4 µg/mL (≈ 0.67 µM) | 0.4 µg/mL (≈ 0.67 µM) | ≥ 10 µg/mL | ≥ 0.4 µg/mL | 0.08 µg/mL (≈ 0.134 µM)
COc1ccccc1[C@H](Cn1c(=O)n(C(C)(C)C(=O)NC(C)C)c(=O)c2c(C)c(-n3nccn3)sc21)OCCC#N [Compound I-193, (R)-2-(1-(2-(2-cyanoethoxy)-2-(2-methoxyphenyl)ethyl)-5-methyl-2,4-dioxo-6-(2H-1,2,3-triazol-2-yl)-1,4-dihydrothieno[2,3-d]pyrimidin-3 (2H)-yl)-N-isopropyl-2-methylpropanamide] | AA (≥85% control of Asian soybean rust) | – | – | – | 40.66 cm | – | 5.36 g | 86% | AA (≥85% control of wheat leaf rust) | – | – | AA (≥85% control of wheat septoria leaf blotch) | AA (≥85% control of barley powdery mildew) | 0.4 µg/mL (≈ 0.69 µM) | ≥ 0.08 µg/mL | ≥ 2 µg/mL | ≥ 0.08 µg/mL | 0.08 µg/mL (≈ 0.138 µM)
